Reference: ChEMBL document CHEMBL5360554, “Optimization of the C2 substituents on the 1,4-bis(arylsulfonamido)naphthalene-N,N'-diacetic acid scaffold for better inhibition of Keap1-Nrf2 protein-protein interaction” (Eur J Med Chem, 2023)
Calls of active or inactive are those of the source. The rule behind the calls is not given here.

How the values were obtained:
Keap1/Nrf2 [1] = target: T1, Keap1/Nrf2 (Homo sapiens, UniProt Q14145); test: Inhibition of Keap1-Nrf2 protein-protein interaction (unknown origin) incubated for 34 mins by fluorescence polarization assay
Keap1/Nrf2 [2] = target: T1, Keap1/Nrf2; test: Inhibition of Keap1-Nrf2 protein-protein interaction (unknown origin) preincubated for 30 mins followed by Terbium labeled anti-His antibody addition for 30 mins prior to fluorescein labeled-9mer Nrf2 peptide addition and measured after 60 mins by TR-FRET assay
[3] = target: T2, Keap1/Nrf2 (Homo sapiens) (UniProt Q16236+Q14145); test: Inhibition of Keap1-Nrf2 protein-protein interaction in human NCM460D cells assessed as increase in HMOX1 gene expression at 100 uM by RT-qPCR analysis; assay type: cell-based
[4] = target: T2, Keap1/Nrf2 (Homo sapiens); test: Inhibition of Keap1-Nrf2 protein-protein interaction in human NCM460D cells assessed as increase in GSTM3 gene expression at 100 uM by RT-qPCR analysis; assay type: cell-based
[5] = target: T2, Keap1/Nrf2 (Homo sapiens); test: Inhibition of Keap1-Nrf2 protein-protein interaction in human NCM460D cells assessed as increase in NQO1 gene expression at 100 uM by RT-qPCR analysis; assay type: cell-based
[6] = target: T2, Keap1/Nrf2 (Homo sapiens); test: Inhibition of Keap1-Nrf2 protein-protein interaction in human NCM460D cells assessed as fold increase in GSTM3 gene expression at 10 uM by RT-qPCR analysis; assay type: cell-based
[7] = target: T2, Keap1/Nrf2 (Homo sapiens); test: Inhibition of Keap1-Nrf2 protein-protein interaction in human NCM460D cells assessed as fold increase in HMOX1 gene expression at 10 uM by RT-qPCR analysis; assay type: cell-based
[8] = target: T2, Keap1/Nrf2 (Homo sapiens); test: Inhibition of Keap1-Nrf2 protein-protein interaction in human NCM460D cells assessed as fold increase in NQO1 gene expression at 10 uM by RT-qPCR analysis; assay type: cell-based
[9] = target: T2, Keap1/Nrf2 (Homo sapiens); test: Inhibition of Keap1-Nrf2 protein-protein interaction in human NCM460D cells assessed as fold increase in GSTM3 gene expression at 100 uM by RT-qPCR analysis; assay type: cell-based
[10] = target: T2, Keap1/Nrf2 (Homo sapiens); test: Inhibition of Keap1-Nrf2 protein-protein interaction in human NCM460D cells assessed as fold increase in HMOX1 gene expression at 100 uM by RT-qPCR analysis; assay type: cell-based
[11] = target: T2, Keap1/Nrf2 (Homo sapiens); test: Inhibition of Keap1-Nrf2 protein-protein interaction in human NCM460D cells assessed as fold increase in NQO1 gene expression at 100 uM by RT-qPCR analysis; assay type: cell-based

T2 sequence (Q14145 whole entry, looked up): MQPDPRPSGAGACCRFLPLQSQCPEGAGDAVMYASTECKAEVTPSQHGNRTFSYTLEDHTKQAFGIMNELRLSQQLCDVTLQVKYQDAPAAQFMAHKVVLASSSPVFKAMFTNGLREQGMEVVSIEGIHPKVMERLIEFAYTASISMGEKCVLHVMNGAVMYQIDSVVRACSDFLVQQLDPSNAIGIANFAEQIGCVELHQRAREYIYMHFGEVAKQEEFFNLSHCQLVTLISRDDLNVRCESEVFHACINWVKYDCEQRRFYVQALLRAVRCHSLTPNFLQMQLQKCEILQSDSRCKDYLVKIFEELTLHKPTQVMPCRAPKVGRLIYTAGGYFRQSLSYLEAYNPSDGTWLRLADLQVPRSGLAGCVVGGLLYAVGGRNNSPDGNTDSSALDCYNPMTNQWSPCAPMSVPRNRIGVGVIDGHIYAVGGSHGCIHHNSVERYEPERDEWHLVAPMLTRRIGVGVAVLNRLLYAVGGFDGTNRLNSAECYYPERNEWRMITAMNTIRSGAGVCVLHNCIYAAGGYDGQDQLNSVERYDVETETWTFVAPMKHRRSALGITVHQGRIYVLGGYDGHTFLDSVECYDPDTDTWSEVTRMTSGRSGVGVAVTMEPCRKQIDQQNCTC
T2 sequence (Q16236 whole entry, looked up): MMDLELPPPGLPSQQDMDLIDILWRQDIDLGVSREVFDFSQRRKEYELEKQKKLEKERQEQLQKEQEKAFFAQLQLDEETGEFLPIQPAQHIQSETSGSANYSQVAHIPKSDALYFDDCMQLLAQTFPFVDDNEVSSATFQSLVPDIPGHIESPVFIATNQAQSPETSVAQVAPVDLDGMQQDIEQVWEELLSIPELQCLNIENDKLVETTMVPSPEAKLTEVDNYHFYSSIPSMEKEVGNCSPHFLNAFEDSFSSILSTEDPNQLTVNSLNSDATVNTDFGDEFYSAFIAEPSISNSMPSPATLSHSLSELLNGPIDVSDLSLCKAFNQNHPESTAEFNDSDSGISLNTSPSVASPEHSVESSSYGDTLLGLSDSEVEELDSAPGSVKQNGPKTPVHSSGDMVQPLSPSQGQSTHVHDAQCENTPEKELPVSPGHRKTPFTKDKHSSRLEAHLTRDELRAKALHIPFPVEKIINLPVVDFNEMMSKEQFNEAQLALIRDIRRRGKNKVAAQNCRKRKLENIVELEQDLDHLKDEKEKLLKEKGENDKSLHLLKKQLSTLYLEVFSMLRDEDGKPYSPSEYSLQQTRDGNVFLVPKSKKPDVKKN
T1 sequence (Q16236 whole entry): as the sequence (Q16236 whole entry, looked up) above
T1 sequence (Q14145 whole entry): as the sequence (Q14145 whole entry, looked up) above

Row | Structure (SMILES) | IC50 (Keap1/Nrf2 [1]) [µM] | IC50 (Keap1/Nrf2 [2]) [µM] | Ki (Keap1/Nrf2 [2]) [µM] | HMOX1 gene expression increase (active/not active) [3] | inhibition [4] | inhibition [5] | fold change (FC) [6] | fold change (FC) [7] | fold change (FC) [8] | fold change (FC) [9] | fold change (FC) [10] | fold change (FC) [11]
1 | COc1ccc(S(=O)(=O)N(CC(=O)O)c2cc(CCCN3C(=O)c4ccccc4C3=O)c(N(CC(=O)O)S(=O)(=O)c3ccc(OC)cc3)c3ccccc23)cc1 | 0.077 | 0.0025 | < 0.0001 | Active | Active | Active | 3 | 3 | 3 |  |  | 
2 | COc1ccc(S(=O)(=O)N(CC(=O)O)c2cc(CCC(=O)NC(C)C)c(N(CC(=O)O)S(=O)(=O)c3ccc(OC)cc3)c3ccccc23)cc1 | 0.102 | 0.0126 | 0.0046 |  |  |  |  |  |  |  |  | 
3 | COc1ccc(S(=O)(=O)N(CC(=O)O)c2cc(-c3ccc(C#N)cc3)c(N(CC(=O)O)S(=O)(=O)c3ccc(OC)cc3)c3ccccc23)cc1 | 0.117 | 0.0092 | 0.0031 | inactive | inactive | inactive |  |  |  |  |  | 
4 | COc1ccc(S(=O)(=O)N(CC(N)=O)c2cc(CCC(=O)O)c(N(CC(N)=O)S(=O)(=O)c3ccc(OC)cc3)c3ccccc23)cc1 | 0.162 | 0.0227 | 0.0093 |  |  |  |  |  |  |  |  | 
5 | COc1ccc(-c2cc(N(CC(=O)O)S(=O)(=O)c3ccc(OC)cc3)c3ccccc3c2N(CC(=O)O)S(=O)(=O)c2ccc(OC)cc2)cc1 | 0.085 | 0.0131 | 0.0049 | Active | Active | Active |  |  |  | 8 | 8 | 8
6 | COc1ccc(S(=O)(=O)N(CC(=O)O)c2cc(Sc3ccccc3)c(N(CC(=O)O)S(=O)(=O)c3ccc(OC)cc3)c3ccccc23)cc1 | 0.085 | 0.0058 | 0.0015 |  |  |  |  |  |  |  |  | 
7 | COc1ccc(S(=O)(=O)N(CC(=O)O)c2cc(CCC(=O)N3CCOCC3)c(N(CC(=O)O)S(=O)(=O)c3ccc(OC)cc3)c3ccccc23)cc1 | 0.087 | 0.0069 | 0.002 | Active | Active | Active |  |  |  |  |  | 
8 | COc1ccc(S(=O)(=O)N(CC(=O)O)c2cc(CCCN(C)Cc3ccccc3)c(N(CC(=O)O)S(=O)(=O)c3ccc(OC)cc3)c3ccccc23)cc1 |  | 0.0736 | 0.0329 |  |  |  |  |  |  |  |  | 
9 | COc1ccc(S(=O)(=O)N(CC(=O)O)c2cc(-c3ccccc3)c(N(CC(=O)O)S(=O)(=O)c3ccc(OC)cc3)c3ccccc23)cc1 | 0.096 | 0.0077 | 0.0024 |  |  |  |  |  |  |  |  | 
10 | COc1ccc(S(=O)(=O)N(CC(=O)O)c2cc(-c3ccc(N4C(=O)c5ccccc5C4=O)cc3)c(N(CC(=O)O)S(=O)(=O)c3ccc(OC)cc3)c3ccccc23)cc1 | 0.09 | 0.0071 | 0.0021 | Active | Active | Active | 3 | 3 | 3 |  |  | 
11 | COc1ccc(S(=O)(=O)N(CC(=O)O)c2cc(CCC(N)=O)c(N(CC(=O)O)S(=O)(=O)c3ccc(OC)cc3)c3ccccc23)cc1 | 0.108 | 0.0117 | 0.0042 |  |  |  |  |  |  |  |  | 
